According to patent US20230000842A1, “METHODS OF TREATING CARTILAGE DISORDERS THROUGH INHIBITION OF CLK AND DYRK” (SAMUMED, LLC, priority 2019, published 2023):

Key:
[1] = target: CLK2 kinase (Homo sapiens, UniProt P49760); test: CLK2 kinase activity assay (Z-lyte FRET); assay type: biochemical; details: Z-lyte Ser/Thr 6 peptide, 60 μM ATP, 1 h at room temperature;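 note: FRET read-out as coumarin to fluorescein emission ratio, unphosphorylated peptide as 0% and phosphorylated peptide as 100% controls, duplicate reactions, non-linear regression fit of dose-response curves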
[2] = target: CLK3 kinase (Homo sapiens, UniProt P49761); test: CLK3 kinase activity assay (Z-lyte FRET); assay type: biochemical; details: Z-lyte Ser/Thr 18 peptide, 156 μM ATP, 1 h at room temperature;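 note: kinase activity read as coumarin/fluorescein emission ratio by FRET, unphosphorylated peptide as 0% and phosphorylated peptide as 100% control, values from non-linear regression of dose-response curves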
[3] = system: primary human mesenchymal stem cells (hMSCs); test: Chondrogenesis screening using primary human mesenchymal stem cells; assay type: cell-based; details: Homo sapiens, Mesenchymal stem cells, hMSC chondrogenesis; for EC50: concentration required to induce 50% levels of chondrogenesis with TGF-β3 as positive control, read-out: Conc (nM) of 50% TGF-β3 activity; for Emax: maximum activity relative to TGF-β3 (10 ng/mL) positive control, read-out: Max. Activity as % TGF-β3 activity
Method in brief: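 Primary hMSCs at passage 3–6 were treated across compound concentrations, with TGF-β3 as positive control. Chondrogenic nodule area per well was normalized to 3 DMSO wells on the same plate (fold over DMSO, 2–3 replicates). EC50, maximum activity and the dose reaching it were derived.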

[4] = system: Wnt pathway activity (SW480 colon carcinoma cells stably expressing the Sp5-Luc reporter); test: Wnt pathway activity screening assay (Sp5-Luc reporter gene assay); details: Homo sapiens, SW480, Table 4; SW480 cells stably expressing Sp5-Luc reporter, 10-point dose-response from 10 μM, 36 to 48 hours

Chain of CLK2 kinase (P49760 whole entry): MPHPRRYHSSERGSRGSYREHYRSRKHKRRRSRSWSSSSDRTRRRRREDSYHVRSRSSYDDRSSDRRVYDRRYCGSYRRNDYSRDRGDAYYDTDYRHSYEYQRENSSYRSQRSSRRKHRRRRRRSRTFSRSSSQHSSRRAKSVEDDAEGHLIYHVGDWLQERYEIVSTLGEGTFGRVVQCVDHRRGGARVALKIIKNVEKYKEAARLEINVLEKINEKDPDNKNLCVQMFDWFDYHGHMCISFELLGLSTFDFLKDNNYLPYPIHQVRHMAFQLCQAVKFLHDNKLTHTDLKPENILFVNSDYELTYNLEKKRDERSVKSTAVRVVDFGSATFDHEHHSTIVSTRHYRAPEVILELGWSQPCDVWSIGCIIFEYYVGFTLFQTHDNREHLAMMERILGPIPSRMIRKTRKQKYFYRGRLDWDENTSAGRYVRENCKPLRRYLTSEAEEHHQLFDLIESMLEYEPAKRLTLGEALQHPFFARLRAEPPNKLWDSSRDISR
Chain of CLK3 kinase (P49761 whole entry): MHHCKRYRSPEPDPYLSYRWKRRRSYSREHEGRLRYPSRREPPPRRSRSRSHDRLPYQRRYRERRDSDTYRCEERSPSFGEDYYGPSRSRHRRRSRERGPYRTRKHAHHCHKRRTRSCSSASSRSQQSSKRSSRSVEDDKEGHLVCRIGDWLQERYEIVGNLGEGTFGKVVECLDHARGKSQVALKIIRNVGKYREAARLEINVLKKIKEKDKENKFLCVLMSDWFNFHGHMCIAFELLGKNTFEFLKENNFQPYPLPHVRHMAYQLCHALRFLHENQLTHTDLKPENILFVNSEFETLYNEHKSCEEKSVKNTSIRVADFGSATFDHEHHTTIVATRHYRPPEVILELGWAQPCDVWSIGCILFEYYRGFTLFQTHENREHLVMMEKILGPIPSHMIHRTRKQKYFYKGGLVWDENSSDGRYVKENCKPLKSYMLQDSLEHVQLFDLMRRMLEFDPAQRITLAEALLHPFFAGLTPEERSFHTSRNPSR

Structure (SMILES) | EC50 [1] [nM] | EC50 [2] [nM] | EC50 [3] [nM] | Emax [3] [%] | EC50 [4] [nM]
Cc1ncc(-c2cnc3[nH]nc(-c4nc5c(-c6cccc(F)c6)nccc5[nH]4)c3c2)n1C [compound 159] | 1 | 34 | 100 | 152 | 12.5
CCC(=O)Nc1cncc(-c2cnc3[nH]nc(-c4nc5c(-c6ccc(F)cc6)cncc5[nH]4)c3c2)c1 [compound 160] | 3 | 37 | 300 | 143 | 11
CC(C)(C)C(=O)Nc1cncc(-c2ccc3[nH]nc(-c4nc5c(-c6ccc(F)cc6)cncc5[nH]4)c3c2)c1 [compound 161] | 17 | 105 | 100 | 128 | 4
CC(C)(C)C(=O)Nc1cncc(-c2ccc3[nH]nc(-c4nc5c(-c6ccc(F)cc6)cncc5[nH]4)c3n2)c1 [compound 162] | 8 | 9840 | – | 41.8 | 2730
CC(C)CC(=O)Nc1cncc(-c2ccc3[nH]nc(-c4nc5c(-c6ccc(F)cc6)cncc5[nH]4)c3c2)c1 [compound 163] | 32 | 75 | 100 | 125 | 57
O=C(Nc1cncc(-c2ccc3[nH]nc(-c4nc5c(-c6ccc(F)cc6)cncc5[nH]4)c3c2)c1)C1CCC1 [compound 164] | 28 | 87 | 100 | 203 | 5.7
Nc1cncc(-c2ccc3[nH]nc(-c4nc5c(-c6ccccc6F)nccc5[nH]4)c3c2)c1 [compound 165] | 2 | 20 | 100 | 61.9 | 8.8
Nc1cncc(-c2ccc3[nH]nc(-c4nc5c(-c6ccccc6F)cccc5[nH]4)c3n2)c1 [compound 166] | 3 | 209 | 30 | 81.8 | 1070
Nc1cncc(-c2ccc3[nH]nc(-c4nc5c(-c6ccccc6F)ccnc5[nH]4)c3c2)c1 [compound 167] | 4 | 19 | 30 | 113 | 2
Nc1cncc(-c2cnc3[nH]nc(-c4nc5c(-c6ccccc6F)ccnc5[nH]4)c3c2)c1 [compound 168] | 33 | 76 | 300 | 59.9 | 12.3
Nc1cncc(-c2ccc3[nH]nc(-c4nc5c(-c6ccccc6F)nccc5[nH]4)c3n2)c1 [compound 169] | 1 | 50 | 10 | 108 | > 10000
Nc1cncc(-c2ccc3[nH]nc(-c4nc5c(-c6ccccc6F)cncc5[nH]4)c3n2)c1 [compound 170] | 1 | 12 | 10 | 98.2 | > 10000
Nc1cncc(-c2ccc3[nH]nc(-c4nc5c(-c6ccccc6F)ccnc5[nH]4)c3n2)c1 [compound 171] | 1 | 34 | 10 | 127 | > 10000
CCCC(=O)Nc1cncc(-c2cnc3[nH]nc(-c4nc5c(-c6ccccc6F)cncc5[nH]4)c3c2)c1 [compound 172] | 7 | 117 | – | 82.8 | 8
CC(C)C(=O)Nc1cncc(-c2ccc3[nH]nc(-c4nc5c(-c6ccccc6F)cncc5[nH]4)c3n2)c1 [compound 174] | 4 | 9840 | 10 | 181 | > 10000
O=C(Nc1cncc(-c2ccc3[nH]nc(-c4nc5c(-c6ccccc6F)cccc5[nH]4)c3n2)c1)C(F)(F)F [compound 175] | 5 | 180 | – | 40.1 | 823

Structure (SMILES) | EC50 [1] [nM] | EC50 [2] [nM] | EC50 [3] [nM] | Emax [3] [%] | EC50 [4] [nM]
O=C(Nc1cncc(-c2ccc3[nH]nc(-c4nc5c(-c6ccccc6F)ccnc5[nH]4)c3n2)c1)C(F)(F)F [compound 176] | 6 | 149 | 10 | 74 | > 10000
CC(C)Nc1cncc(-c2ccc3[nH]nc(-c4nc5c(-c6ccccc6F)cncc5[nH]4)c3c2)c1 [compound 177] | 6 | 209 | – | 56.8 | 1
c1cncc(-c2ccc3[nH]nc(-c4nc5c(-c6cccnc6)cncc5[nH]4)c3c2)c1 [compound 178] | 5 | 207 | 30 | 159 | 35
c1cncc(-c2cc3c(-c4nc5c(-c6cccnc6)cccc5[nH]4)n[nH]c3cn2)c1 [compound 179] | 11 | 969 | 100 | 93 | 92.4
c1cncc(-c2ccc3[nH]nc(-c4nc5c(-c6cccnc6)cccc5[nH]4)c3n2)c1 [compound 180] | 2 | 296 | 30 | 57.8 | 1120
c1cncc(-c2cnc3[nH]nc(-c4nc5c(-c6cccnc6)cncc5[nH]4)c3c2)c1 [compound 181] | 15 | 17 | – | 62.9 | > 10000
c1cncc(-c2cc3c(-c4nc5c(-c6cccnc6)nccc5[nH]4)n[nH]c3cn2)c1 [compound 182] | 11 | 9840 | – | 44.5 | 28.3
c1cncc(-c2ccc3[nH]nc(-c4nc5c(-c6cccnc6)nccc5[nH]4)c3n2)c1 [compound 183] | 1 | 105 | 100 | 70 | > 10000
c1cncc(-c2ccc3[nH]nc(-c4nc5c(-c6cccnc6)cncc5[nH]4)c3n2)c1 [compound 184] | 1 | 177 | 30 | 83.8 | > 10000
c1cncc(-c2ccc3[nH]nc(-c4nc5c(-c6cccnc6)ccnc5[nH]4)c3n2)c1 [compound 185] | 1 | 308 | 300 | 94.6 | 1510
CC(C)C(=O)Nc1cncc(-c2ccc3[nH]nc(-c4nc5c(-c6cccnc6)cncc5[nH]4)c3c2)c1 [compound 186] | 4 | 37 | – | 34.4 | 5.1
CC(C)C(=O)Nc1cncc(-c2ccc3[nH]nc(-c4nc5c(-c6cccnc6)ccnc5[nH]4)c3n2)c1 [compound 187] | 2 | 132 | – | 26.1 | > 10000
O=C(Nc1cncc(-c2cnc3[nH]nc(-c4nc5c(-c6cccnc6)cncc5[nH]4)c3c2)c1)C1CC1 [compound 190] | 5 | 39 | – | 86.3 | 23.3
O=C(Nc1cncc(-c2cnc3[nH]nc(-c4nc5c(-c6cccnc6)cncc5[nH]4)c3c2)c1)C1CCC1 [compound 191] | 3 | 49 | 300 | 130 | 35.4
CC(C)Nc1cncc(-c2ccc3[nH]nc(-c4nc5c(-c6cccnc6)nccc5[nH]4)c3n2)c1 [compound 193] | 2 | 322 | 10 | 54.4 | 981
